Assay results taken from DBAASP.
In brackets after ≈: the same amount, converted by molar mass. Several values for one entry are separate records, joined by “and”; a condition that tells them apart may be missing. Identical values can stand only once. Blank lines part the entries; values can stand above or below the molecule they belong to.

Legend:
Assay in all cases: ≥ marks a high value that may be exact or a test limit, other limits are often not marked, values filed in µg/mL are converted to µM
[1] = tested on: Staphylococcus haemolyticus
Corynebacterium xerosis = tested on: Corynebacterium xerosis
Enterococcus faecalis = tested on: Enterococcus faecalis
[2] = tested on: Staphylococcus aureus ATCC 25923
[3] = tested on: Staphylococcus epidermidis
[4] = tested on: Staphylococcus aureus SAP 0017
Salmonella typhimurium = tested on: Salmonella typhimurium
Escherichia coli = tested on: Escherichia coli
Pseudomonas aeruginosa = tested on: Pseudomonas aeruginosa
[5] = tested on: Enterococcus faecalis ATCC 29212
[6] = tested on: Streptococcus pyogenes ATCC 19615
Staphylococcus aureus = tested on: Staphylococcus aureus
Staphylococcus aureus MR = tested on: Staphylococcus aureus MR
[7] = tested on: Listeria monocytogenes NCTC 7973
Escherichia coli 363 = tested on: Escherichia coli 363
Aerococcus viridans = tested on: Aerococcus viridans
Aeromonas hydrophila = tested on: Aeromonas hydrophila
Vibrio anguillarum = tested on: Vibrio anguillarum
[8] = tested on: Vibrio harveyi CGMCC 1.1593
Bacillus subtilis = tested on: Bacillus subtilis
Vibrio harveyi = tested on: Vibrio harveyi
Micrococcus luteus = tested on: Micrococcus luteus

MIC (Corynebacterium xerosis): 0.266 µM (≈ 0.5 µg/mL) | MIC (Enterococcus faecalis): ≥ 34 µM | MIC [2]: 8.51 µM (≈ 16 µg/mL) | MIC [3]: 4.25 µM and 2.13 µM | MIC [4]: 8.51 µM (≈ 16 µg/mL) | MIC (Salmonella typhimurium): ≥ 34 µM | MIC (Escherichia coli): 2.13 µM and 4.25 µM | MIC (Pseudomonas aeruginosa): 8.51 µM (≈ 16 µg/mL) | MIC [5]: > 34 µM | MIC [6]: 4.25 µM (≈ 8 µg/mL) | MIC (Staphylococcus aureus): 8.51 µM (≈ 16 µg/mL) | MIC (Staphylococcus aureus MR): 8.51 µM (≈ 16 µg/mL) | MIC [7]: 8.51 µM (≈ 16 µg/mL)
Compound: CC[C@H](C)[C@H](N)C(=O)N[C@@H](CC(C)C)C(=O)N[C@@H](CCCCN)C(=O)N[C@@H](CCCCN)C(=O)N[C@@H](Cc1c[nH]c2ccccc12)C(=O)N1CCC[C@H]1C(=O)N[C@@H](Cc1c[nH]c2ccccc12)C(=O)N[C@@H](Cc1c[nH]c2ccccc12)C(=O)N1CCC[C@H]1C(=O)N[C@@H](Cc1c[nH]c2ccccc12)C(=O)N[C@@H](CCCN=C(N)N)C(=O)N[C@@H](CCCN=C(N)N)C(=O)N[C@@H](CCCCN)C(N)=O [ILKKWPWWPWRRK]
MIC [1]: 1.06 µM and 0.532 µM

MIC (Escherichia coli 363): ≥ 50 µM | MIC (Aerococcus viridans): 0.39 µM (≈ 1.7 µg/mL) | MIC (Aeromonas hydrophila): ≥ 50 µM | MIC (Vibrio anguillarum): 6.25 µM (≈ 27.3 µg/mL) | MIC [8]: 5.06 µM (≈ 22.1 µg/mL) | MIC (Bacillus subtilis): 12.5 µM and 10.1 µM | MIC (Vibrio harveyi): 1.56 µM (≈ 6.82 µg/mL) | MIC (Micrococcus luteus): 0.78 µM (≈ 3.41 µg/mL)
Compound: CC[C@H](C)[C@@H]1NC(=O)[C@@H]2CSSC[C@H](NC(=O)[C@@H]3CCCN3C(=O)[C@H](CO)NC(=O)[C@H](CCCN=C(N)N)NC1=O)C(=O)N1CCC[C@H]1C(=O)N[C@H](C(=O)N[C@@H](C)C(=O)N[C@@H](CC(N)=O)C(=O)N[C@@H](Cc1ccc(O)cc1)C(=O)NCC(=O)O)CSSC[C@H](NC(=O)CNC(=O)[C@@H]1CCCN1C(=O)[C@H](CCCN=C(N)N)NC(=O)CNC(=O)CNC(=O)[C@H](Cc1ccccc1)NC(=O)[C@H](CCC(N)=O)NC(=O)CNC(=O)CNC(=O)[C@@H](NC(=O)[C@H](Cc1ccccc1)NC(=O)[C@@H]1CCCN1C(=O)[C@H](CCCN=C(N)N)NC(=O)CNC(=O)CNC(=O)[C@H](Cc1ccccc1)NC(=O)[C@@H]1CCCN1C(=O)[C@H](CCCN=C(N)N)NC(=O)CNC(=O)[C@H](Cc1ccc(O)cc1)NC(=O)[C@H](CCCN=C(N)N)NC(=O)[C@H](CCCN=C(N)N)NC(=O)[C@H](CO)NC(=O)[C@@H](NC(=O)[C@H](CCCN=C(N)N)NC(=O)[C@@H]1CCCN1C(=O)[C@@H](N)CO)C(C)C)C(C)C)C(=O)N[C@@H](C(C)C)C(=O)N2 [SPRVSRRYGRPFGGRPFVGGQFGGRPGCVCIRSPCPCANYG]
MIC [1]: 12.5 µM (≈ 54.6 µg/mL)
